These results are taken from patent US11524968B2, “Heterocyclic compound as a protein kinase inhibitor” (HK inno.N Corporation, priority 2017, dated 2022).

Some results are limits rather than exact numbers.

The target in this test is JAK1 (Homo sapiens (Human), UniProt P23458). Briefly: Analysis of JAK1 activity inhibition ability (ADP-Glo Kinase Assay). The format is biochemical. As to conditions: JAK1 enzyme, ADP-Glo luminescence, ATP 250 uM, IRS-itide substrate, 30° C. 40 minutes; read-out: IC50. The gist of the method: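 ADP-Glo luminescence read-out of ADP production, with IC50 taken as the concentration halving JAK1 activity relative to control. Enzyme was incubated 40 min at 30 °C with compound, IRS-itide (40 ng/mL) and ATP (250 uM), concentrations as prepared in pH 7.5 Tris-HCl/MgCl2/BSA/DTT buffer.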
Sequence of JAK1 (P23458 whole entry): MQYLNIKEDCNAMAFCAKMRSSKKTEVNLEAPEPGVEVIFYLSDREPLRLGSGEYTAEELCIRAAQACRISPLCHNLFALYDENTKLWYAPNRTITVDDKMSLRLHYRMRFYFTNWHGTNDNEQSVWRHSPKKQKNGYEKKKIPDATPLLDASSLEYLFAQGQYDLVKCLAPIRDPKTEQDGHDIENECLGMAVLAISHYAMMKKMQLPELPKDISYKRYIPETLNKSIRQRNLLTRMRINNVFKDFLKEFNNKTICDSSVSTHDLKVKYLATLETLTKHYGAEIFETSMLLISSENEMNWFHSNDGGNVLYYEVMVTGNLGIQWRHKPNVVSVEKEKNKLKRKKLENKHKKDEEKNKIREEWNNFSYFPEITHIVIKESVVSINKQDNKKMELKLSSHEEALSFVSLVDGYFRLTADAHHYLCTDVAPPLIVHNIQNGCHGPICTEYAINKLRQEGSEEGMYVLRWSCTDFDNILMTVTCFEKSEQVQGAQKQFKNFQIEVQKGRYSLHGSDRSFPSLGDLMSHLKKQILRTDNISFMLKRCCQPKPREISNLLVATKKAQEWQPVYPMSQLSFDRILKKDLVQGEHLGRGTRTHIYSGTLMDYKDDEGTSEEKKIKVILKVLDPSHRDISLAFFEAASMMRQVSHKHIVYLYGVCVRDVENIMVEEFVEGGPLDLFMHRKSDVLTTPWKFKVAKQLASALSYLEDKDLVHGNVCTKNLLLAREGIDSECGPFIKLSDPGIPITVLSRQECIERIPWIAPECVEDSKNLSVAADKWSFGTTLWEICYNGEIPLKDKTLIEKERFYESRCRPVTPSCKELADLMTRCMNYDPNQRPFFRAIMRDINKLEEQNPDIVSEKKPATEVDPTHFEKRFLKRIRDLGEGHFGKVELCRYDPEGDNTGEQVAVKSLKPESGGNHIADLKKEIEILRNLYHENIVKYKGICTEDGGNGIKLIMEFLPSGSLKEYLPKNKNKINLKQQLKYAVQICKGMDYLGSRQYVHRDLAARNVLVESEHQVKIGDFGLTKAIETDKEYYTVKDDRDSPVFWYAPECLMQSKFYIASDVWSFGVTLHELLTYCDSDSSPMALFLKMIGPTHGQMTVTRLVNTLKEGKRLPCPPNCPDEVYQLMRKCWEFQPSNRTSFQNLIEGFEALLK

With `CC(C)(C)C1C=C(c2cc(NC(=O)C3CC3)nc3[nH]ccc23)CCN1C(=O)CC#N` (centres unmarked) [Example 412, N-(4-(6-(tert-butyl)-1-(2-cyanoacetyl)-1,2,3,6-tetrahydropyridin-4-yl)-1H-pyrrolo[2,3-b]pyridin-6-yl)cyclopropanecarboxamide], the IC50 is < 20 nM.
In the case of `CCC1CC(c2cc(NC(=O)C3CC3)nc3[nH]ccc23)=CCN1C(=O)CC#N` (centres unmarked) [Example 413, N-(4-(1-(2-cyanoacetyl)-2-ethyl-1,2,3,6-tetrahydropyridin-4-yl)-1H-pyrrolo[2,3-b]pyridin-6-yl)cyclopropanecarboxamide], the IC50 is < 20 nM.
The same measure for `N#CCC(=O)N1CC=C(c2cc(NC(=O)C3CC3)nc3[nH]ccc23)CC12CCC2` [Example 414, N-(4-(5-(2-cyanoacetyl)-5-azaspiro[3.5]non-7-en-8-yl)-1H-pyrrolo[2,3-b]pyridin-6-yl)cyclopropanecarboxamide]: < 20 nM; for `C[C@@H]1CN(C(=O)CC2(C#N)CC2)CC=C1c1cc(NC(=O)C2CC2)nc2[nH]ccc12` [Example 415, (S)—N-(4-(1-(2-(1-cyanocyclopropyl)acetyl)-3-methyl-1,2,3,6-tetrahydropyridin-4-yl)-1H-pyrrolo[2,3-b]pyridin-6-yl)cyclopropanecarboxamide]: < 20 nM.
Turning to `CC[C@@H]1C=C(c2cc(NC(=O)C3CC3)nc3[nH]ccc23)CCN1C(=O)CC#N` [Example 416, (R)—N-(4-(1-(2-cyanoacetyl)-6-ethyl-1,2,3,6-tetrahydropyridin-4-yl)-1H-pyrrolo[2,3-b]pyridin-6-yl)cyclopropanecarboxamide], the IC50 was < 20 nM.
Regarding `N#CCCC(=O)N1C=C(c2cc(NC(=O)C3CC3)nc3[nH]ccc23)CCC1` [Example 418, N-(4-(1-(3-cyanopropanoyl)-1,4,5,6-tetrahydropyridin-3-yl)-1H-pyrrolo[2,3-b]pyridin-6-yl)cyclopropanecarboxamide], the IC50 was > 200 nM.
With `N#CCC(=O)N1C=C(c2cc(NC(=O)C3CC3)nc3[nH]ccc23)CCC1` [Example 419, N-(4-(1-(2-cyanoacetyl)-1,4,5,6-tetrahydropyridin-3-yl)-1H-pyrrolo[2,3-b]pyridin-6-yl)cyclopropanecarboxamide], the IC50 was > 200 nM.
The same measure for `N#CCC(=O)N1CCC=C(c2cc(NC(=O)C3CC3)nc3[nH]ccc23)C1` [Example 420, N-(4-(1-(2-cyanoacetyl)-1,2,5,6-tetrahydropyridin-3-yl)-1H-pyrrolo[2,3-b]pyridin-6-yl)cyclopropanecarboxamide]: 20 to 200 nM; for `N#CCCC(=O)N1CCC=C(c2cc(NC(=O)C3CC3)nc3[nH]ccc23)C1` [Example 421, N-(4-(1-(3-cyanopropanoyl)-1,2,5,6-tetrahydropyridin-3-yl)-1H-pyrrolo[2,3-b]pyridin-6-yl)cyclopropanecarboxamide]: 20 to 200 nM.
As for `N#CCC(=O)N1CC=C(c2cc(NC(=O)C3CC3)nc3[nH]ccc23)CCC1` [Example 422, N-(4-(1-(2-cyanoacetyl)-2,5,6,7-tetrahydro-1H-azepin-4-yl)-1H-pyrrolo[2,3-b]pyridin-6-yl)cyclopropanecarboxamide], the IC50 was < 20 nM.
Turning to `O=C(Nc1cc(C2=CCN(C(=O)c3ccnc(F)c3)CCC2)c2cc[nH]c2n1)C1CC1` [Example 423, N-(4-(1-(2-fluoroisonicotinoyl)-2,5,6,7-tetrahydro-1H-azepin-4-yl)-1H-pyrrolo[2,3-b]pyridin-6-yl)cyclopropanecarboxamide], the IC50 was < 20 nM.
`O=C(Nc1cc(C2=CCN(C(=O)c3ccnc(F)c3F)CCC2)c2cc[nH]c2n1)C1CC1` [Example 424, N-(4-(1-(2,3-difluoroisonicotinoyl)-2,5,6,7-tetrahydro-1H-azepin-4-yl)-1H-pyrrolo[2,3-b]pyridin-6-yl)cyclopropanecarboxamide]: the IC50 was < 20 nM.
As to `N#CCC(=O)N1CC=C(c2nc(NC(=O)C3CC3)nc3[nH]ccc23)CC1` [Example 425, N-(4-(1-(2-cyanoacetyl)-1,2,3,6-tetrahydropyridin-4-yl)-7H-pyrrolo[2,3-d]pyrimidin-2-yl)cyclopropanecarboxamide], the IC50 was 20 to 200 nM.
The same measure for `N#CCC(=O)N1CC=C(c2cc(NC(=O)C3CC3)nc3[nH]ccc23)C1` [Example 426, N-(4-(1-(2-cyanoacetyl)-2,5-dihydro-1H-pyrrol-3-yl)-1H-pyrrolo[2,3-b]pyridin-6-yl)cyclopropanecarboxamide]: > 200 nM; for `N#CCCC(=O)N1CC=C(c2cc(NC(=O)C3CC3)nc3[nH]ccc23)C1` [Example 427, N-(4-(1-(3-cyanopropanoyl)-2,5-dihydro-1H-pyrrol-3-yl)-1H-pyrrolo[2,3-b]pyridin-6-yl)cyclopropanecarboxamide]: > 200 nM; for `O=C(Nc1cc(C2=CCN(C(=O)CC(F)(F)F)C2)c2cc[nH]c2n1)C1CC1` [Example 428, N-(4-(1-(3,3,3-trifluoropropanoyl)-2,5-dihydro-1H-pyrrol-3-yl)-1H-pyrrolo[2,3-b]pyridin-6-yl)cyclopropanecarboxamide]: > 200 nM.
On to `O=C(Nc1cc(C2=CCN(C(=O)CCC(F)(F)F)C2)c2cc[nH]c2n1)C1CC1` [Example 429, N-(4-(1-(4,4,4-trifluorobutanoyl)-2,5-dihydro-1H-pyrrol-3-yl)-1H-pyrrolo[2,3-b]pyridin-6-yl)cyclopropanecarboxamide], for which the IC50 was > 200 nM.
Next, `N#CC1(C(=O)N2CC=C(c3cc(NC(=O)C4CC4)nc4[nH]ccc34)C2)CC1` [Example 430, N-(4-(1-(1-cyanocyclopropane-1-carbonyl)-2,5-dihydro-1H-pyrrol-3-yl)-1H-pyrrolo[2,3-b]pyridin-6-yl)cyclopropanecarboxamide]: > 200 nM; `CCNC(=O)Nc1ccc(-c2cc(NC(=O)C3CC3)nc3[nH]ccc23)cc1` [Example 431, N-(4-(4-(3-ethylureido)phenyl)-1H-pyrrolo[2,3-b]pyridin-6-yl)cyclopropanecarboxamide]: 20 to 200 nM.
Next, `O=C(Nc1cc(-c2ccc(NC(=O)N3CCOCC3)cc2)c2cc[nH]c2n1)C1CC1` [Example 432, N-(4-(6-(cyclopropanecarboxamido)-1H-pyrrolo[2,3-b]pyridin-4-yl)phenyl)morpholine-4-carboxamide]: 20 to 200 nM; `CCCCNC(=O)Nc1ccc(-c2cc(NC(=O)C3CC3)nc3[nH]ccc23)cc1` [Example 433, N-(4-(4-(3-butylureido)phenyl)-1H-pyrrolo[2,3-b]pyridin-6-yl)cyclopropanecarboxamide]: 20 to 200 nM.
Next, `O=C(NCC(F)(F)F)Nc1ccc(-c2cc(NC(=O)C3CC3)nc3[nH]ccc23)cc1` [Example 435, N-(4-(4-(3-(2,2,2-trifluoroethyl)ureido)phenyl)-1H-pyrrolo[2,3-b]pyridin-6-yl)cyclopropanecarboxamide]: 20 to 200 nM; `Cc1cc(NC(=O)NCC(F)(F)F)ccc1-c1cc(NC(=O)C2CC2)nc2[nH]ccc12` [Example 436, N-(4-(2-methyl-4-(3-(2,2,2-trifluoroethyl)ureido)phenyl)-1H-pyrrolo[2,3-b]pyridin-6-yl)cyclopropanecarboxamide]: 20 to 200 nM; `O=C(Nc1ccc(-c2nc(NC(=O)C3CC3)nc3[nH]ccc23)cc1)NC1CC1` [Example 437, N-(4-(4-(3-cyclopropylureido)phenyl)-7H-pyrrolo[2,3-d]pyrimidin-2-yl)cyclopropanecarboxamide]: > 200 nM.
Consider `CCNC(=O)Nc1ccc(-c2nc(NC(=O)C3CC3)nc3[nH]ccc23)cc1` [Example 438, N-(4-(4-(3-ethylureido)phenyl)-7H-pyrrolo[2,3-d]pyrimidin-2-yl)cyclopropanecarboxamide], for which the IC50 is > 200 nM.
The same measure for `CCCCNC(=O)Nc1ccc(-c2nc(NC(=O)C3CC3)nc3[nH]ccc23)cc1` [Example 439, N-(4-(4-(3-butylureido)phenyl)-7H-pyrrolo[2,3-d]pyrimidin-2-yl)cyclopropanecarboxamide]: 20 to 200 nM; for `O=C(Nc1ccc(-c2nc(NC(=O)C3CC3)nc3[nH]ccc23)cc1)Nc1ccc(F)c(F)c1` [Example 440, N-(4-(4-(3-(3,4-difluorophenyl)ureido)phenyl)-7H-pyrrolo[2,3-d]pyrimidin-2-yl)cyclopropanecarboxamide]: 20 to 200 nM; for `O=C(Nc1ccc(F)cc1)Nc1ccc(-c2nc(NC(=O)C3CC3)nc3[nH]ccc23)cc1` [Example 441, N-(4-(4-(3-(4-fluorophenyl)ureido)phenyl)-7H-pyrrolo[2,3-d]pyrimidin-2-yl)cyclopropanecarboxamide]: 20 to 200 nM.
Consider `O=C(NCC(F)(F)F)NC1CC=C(c2cc(NC(=O)C3CC3)nc3[nH]ccc23)CC1` (centres unmarked) [Example 442, N-(4-(4-(3-(2,2,2-trifluoroethyl)ureido)cyclohex-1-en-1-yl)-1H-pyrrolo[2,3-b]pyridin-6-yl)cyclopropanecarboxamide], for which the IC50 was < 20 nM.
Next, `O=C(Nc1cc(C2=CCN(C(=O)NCC(F)(F)F)CC2)c2cc[nH]c2n1)C1CC1` [Example 443, 4-(6-(cyclopropanecarboxamido)-1H-pyrrolo[2,3-b]pyridin-4-yl)-N-(2,2,2-trifluoroethyl)-3,6-dihydropyridine-1 (2H)-carboxamide]: < 20 nM; `CCCCNC(=O)N1CC=C(c2cc(NC(=O)C3CC3)nc3[nH]ccc23)CC1` [Example 444, N-butyl-4-(6-(cyclopropanecarboxamido)-1H-pyrrolo[2,3-b]pyridin-4-yl)-3,6-dihydropyridine-1 (2H)-carboxamide]: 20 to 200 nM; `O=C(Nc1cc(C2=CCN(C(=O)N3CCS(=O)(=O)CC3)CC2)c2cc[nH]c2n1)C1CC1` [Example 445, N-(4-(1-(1,1-dioxidothiomorpholine-4-carbonyl)-1,2,3,6-tetrahydropyridin-4-yl)-1H-pyrrolo[2,3-b]pyridin-6-yl)cyclopropanecarboxamide]: 20 to 200 nM.

Usually IC50 stands for the concentration that inhibits the measured activity by half.
